Source: patent EP4471048A1, “PEPTIDE INHIBITORS OF INTERLEUKIN-23 RECEPTOR” (Zealand Pharma A/S, priority 2023, dated 2024)
*1 amine or outer side, *2 acyl side, *3 side chain or, on linkers, in order; H or OH if unused. Where a SMILES comes first, the peptide text is derived from it. Bridges are numbered along the chain shown (N, C = ends). [ ]: non-standard residue; d: D form. X14 = O=C(CC[C@H](N[*:2])C(=O)[*:3])[*:1]; X8 = O=C(CC[C@@H](N[*:2])C(=O)[*:3])[*:1]; β3hW = N[C@H](CC(=O)O)Cc1c[nH]c2ccccc12; 2Nal = N[C@@H](Cc1ccc2ccccc2c1)C(=O)O; AEF = NCCOc1ccc(C[C@H](N)C(=O)O)cc1; 3Pal = N[C@@H](Cc1cccnc1)C(=O)O; αMeL = CC(C)C[C@](C)(N)C(=O)O; β3hK = NCCCC[C@H](N)CC(=O)O; Dab = NCC[C@H](N)C(=O)O

Biological target: T1, human IL-23R (Homo sapiens, UniProt Q5VWK5)
T1 sequence (Q5VWK5 22-629): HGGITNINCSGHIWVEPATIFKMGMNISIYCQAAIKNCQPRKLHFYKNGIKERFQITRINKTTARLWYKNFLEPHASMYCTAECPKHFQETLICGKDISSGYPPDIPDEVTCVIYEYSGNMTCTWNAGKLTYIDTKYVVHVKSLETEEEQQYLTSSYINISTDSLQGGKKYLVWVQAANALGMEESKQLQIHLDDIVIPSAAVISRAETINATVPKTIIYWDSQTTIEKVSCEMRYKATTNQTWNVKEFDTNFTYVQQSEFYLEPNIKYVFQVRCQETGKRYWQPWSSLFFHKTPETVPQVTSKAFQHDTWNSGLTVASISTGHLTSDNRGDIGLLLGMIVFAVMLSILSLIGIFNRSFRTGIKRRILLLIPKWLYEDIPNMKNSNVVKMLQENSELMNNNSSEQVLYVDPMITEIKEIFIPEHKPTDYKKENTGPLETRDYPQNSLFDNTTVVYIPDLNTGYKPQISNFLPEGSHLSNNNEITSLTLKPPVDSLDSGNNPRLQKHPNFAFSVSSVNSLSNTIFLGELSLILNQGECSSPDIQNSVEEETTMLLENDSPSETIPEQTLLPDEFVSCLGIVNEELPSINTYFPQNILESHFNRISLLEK
Assay: biochemical
Settings: for Emax: read-out: % displacement (hIL-23R NIuc)
Text: The compound binding affinity for IL-23R was estimated by the ability of compounds to displace a fluorophore-labelled reference compound from the human IL-23R. The assay principle relies on Bioluminescence Resonance Energy Transfer (BRET) between a fluorophore-labelled reference compound binding to the IL-23R part of a fusion protein consisting of the IL-23R fused to a Nanoluc luciferase enzyme (Nanoluc). The Nanoluc is placed in the N-terminus in close proximity to the binding domain of the ligand. Upon close proximity between the fluorophore of the fluorophore-labelled compound and the Nanoluc of the fusion protein, bioluminescence energy generated from conversion of a Nanoluc substrate, is transferred to the fluorophore resulting in an increase in BRET. In presence of an unlabelled compound, the unlabelled compound displaces the fluorophore-labelled peptide from its binding site resulting in a decrease in BRET. The concentration for which half of the fluorophore-labelled peptide is displaced by the unlabelled compound depends on the affinity of the compound for the IL-23R, and is termed the IC50 concentration.
The plasmid also contained a gene to confer resistance for the antibiotic hygromycin. A cell line stably expressing the Nluc-IL23R fusion protein was generated by transfection of HEK293 cells with the expression plasmid and selected with hygromycin for 3 weeks in Growth medium consisting of DMEM w/ Glutamax-I containing, 10% V/V FBS, 1% V/V P/S, 1 mM Sodium Pyruvate, and 1X NEAA, and 0.3 mg/mL hygromycin. The remaining cells were propagated and considered a stable expressing Nluc-IL23R fusion protein pool clone.
Cells expressing the Nluc-IL23R fusion protein were expanded in Growth medium and membranes prepared by homogenization of a cell pellet from 18 T175 flasks (4 °C in subsequent steps). The cell pellet was lysed Tris 10 mM, 7.5, 1 mM EDTA and protease inhibitors (Complete, Roche) and homogenized using a 15 mL glass-dounce by 50 strokes. The homogenate was spun at spin @1500 rpm for 10 min, the supernatant transferred to SV-34 tubes and spun at 40000g for 20 min at 4 °C to pellet the crude membranes. The supernatant was then removed, the pellet resuspended in 5 mL buffer containing 50 mM HEPES pH 7.4, 5 mM EGTA, and 5 mM MgCl2, and homogenized. Aliquots of the resuspended and homogenized membranes containing the Nluc-IL23R fusion protein were stored at -80 °C until use.
The plate was sealed with light impermeable plate seals, and incubated on an orbital shaker 400 rpm for 2 hours at room temperature. To determine the BRET ratio, the plate seal was removed and 25 µL of the Nanoluc substrate (Promega N1572) diluted 1:500 was added to each well and incubated for 1-2 minutes on an orbital shaker at 400 rpm. […] The BRET ratio was calculated as the fluorescence from the TAMRA/nanoluc bioluminescence.
Compound potency (IC50) and maximal displacement (% displacement) were estimated by computer-aided curve fitting using a 4-parameter logistic (4PL) non-linear model. […]
In this application, the inventors provide the data as IC50 values.

SMILES | % displacement (hIL-23R NIuc) | IC50 | Emax
CC[C@H](C)[C@@H]1NC(=O)[C@@H]2CCCCNC(=O)CC[C@@H](C(=O)NCCc3cccnc3)NC(=O)[C@](C)(C(C)C)NC(=O)[C@H](Cc3ccc4ccccc4c3)NC(=O)[C@H](Cc3ccc(OCCN)cc3)NC(=O)[C@@H](CCC(=O)N2)NC(=O)[C@H](CCC(N)=O)NC(=O)[C@H](Cc2c[nH]c3ccccc23)NC(=O)[C@H](C(C)C)NC1=O [Compound 27, K(1c)(6c)^†VWQ[{d}E](6c)[Y(2-aminoethoxy)][2-Nal][2-Me-Val]E(1c)-[NH-2-(pyridin-3-yl)ethyl]] | 102% | 110 nM | –
CNC(=O)[C@H](Cc1cccnc1)NC(=O)[C@H](CCN)NC(=O)[C@@H]1CCNC(=O)[C@@H]2CCC(=O)N[C@@H](Cc3c[nH]c4ccccc34)C(=O)N[C@@H](CCC(N)=O)C(=O)N[C@@H](CCC(=O)N2)C(=O)N[C@@H](Cc2ccc(OCCN)cc2)C(=O)N[C@@H](Cc2ccc3ccccc3c2)C(=O)N[C@@](C)(CC(C)C)C(=O)N1 [Compound 107, [iso-Glu](1c)^‡(6c)^†WQE(6c)[Y(2-aminoethoxy)][2-Nal][2-Me-Leu][Dab](1c)[Dab][3-(3-Pyridyl)-Ala]-[NHMe]] (WQE[AEF][2Nal][αMeL][Dab][Dab][3Pal]-NHMe; linker N-3-7 via X14) | – | – | 97%
COc1ccc(C[C@@H]2NC(=O)[C@@H]3CCC(=O)N[C@@H](CCCCNC(=O)CC[C@@H](C(=O)N[C@@H](CCCCNC(=O)Cc4ccnc(F)c4)C(N)=O)NC(=O)[C@](C)(CC(C)C)NC(=O)[C@H](Cc4ccc5ccccc5c4)NC2=O)C(=O)N[C@@H]([C@@H](C)O)C(=O)N[C@@H](C(C)C)C(=O)N[C@@H](Cc2c[nH]c4ccccc24)C(=O)N[C@@H](CCC(N)=O)C(=O)N3)cc1 [Compound 57, K(1c)(6c)^†TVWQE(6c)[Y(Me)][2-Nal][2-Me-Leu]E(1c)[K(4-pyridyl-3-fluoroacetyl)]-[NH2]] | – | 790 nM | 93%
CC[C@H](C)[C@@H]1NC(=O)[C@@H]2CCCCNC(=O)CC[C@@H](C(=O)NCC(=O)N[C@H](Cc3cccnc3)C(N)=O)NC(=O)[C@](C)(C(C)C)NC(=O)[C@H](Cc3ccc4ccccc4c3)NC(=O)[C@H](CC3CC3)NC(=O)[C@H](CCC(=O)N2)NC(=O)[C@H](CCC(N)=O)NC(=O)[C@H](Cc2c[nH]c3ccccc23)NC(=O)[C@H](C(C)C)NC1=O [Compound 20, K(1c)(6c)^†IVWQE(6c)[Cyclopropyl-Ala][2-Nal][2-Me-Val]E(1c)G[{d}3-(3-Pyridyl)-Ala]-[NH2]] | 108% | 150 nM | –
CNC(=O)[C@H](Cc1cccnc1)NC(=O)[C@H](CCN)NC(=O)[C@@H]1CCC(=O)NCCCC[C@H]2CC(=O)N[C@@H](Cc3c[nH]c4ccccc34)CC(=O)N[C@@H](CCC(N)=O)C(=O)N[C@@H](CCC(=O)N2)C(=O)N[C@@H](Cc2ccc(OCCN)cc2)C(=O)N[C@@H](Cc2ccc3ccccc3c2)C(=O)N[C@@](C)(CC(C)C)C(=O)N1 [Compound 100, [beta-hLys](1c)(6c)^†[beta-hTrp]QE(6c)[Y(2-aminoethoxy)][2-Nal][2-Me-Leu]E(1c)[Dab][3-(3-Pyridyl)-Ala]-[NHMe]] ([β3hK][β3hW]QE[AEF][2Nal][αMeL]E[Dab][3Pal]-NHMe; lactam 1-8, N-4) | – | 150 nM | 97%
CNC(=O)[C@H](Cc1cccnc1)NC(=O)[C@H](CCN)NC(=O)[C@@H]1CCC(=O)NCCCC[C@@H]2C(=O)N[C@@H]([C@@H](C)O)C(=O)N[C@@H](Cc3c[nH]c4ccccc34)C(=O)N[C@@H](CCC(N)=O)C(=O)N[C@@H](CCc3cn2nn3)C(=O)N[C@@H](Cc2ccc(OCCN)cc2)C(=O)N[C@@H](Cc2ccc3ccccc3c2)C(=O)N[C@@](C)(CC(C)C)C(=O)N1 [Compound 42, [{d}(N3)-K](1c)(6g)^†TWQ[Hpg](6g)[Y(2-aminoethoxy)][2-Nal][2-Me-Leu]E(1c)[Dab][3-(3-Pyridyl)-Ala]-[NHMe]] | – | 1.9 nM | 96%

Continued, values first:

% displacement (hIL-23R NIuc) | IC50 | Emax | SMILES
– | 1.5 nM | 101% | CNC(=O)[C@H](Cc1cccnc1)NC(=O)[C@H](CCN)NC(=O)[C@@H]1CCC(=O)NCCCC[C@@H]2NC(=O)CCC[C@H](NC(=O)[C@H](CCC(N)=O)NC(=O)[C@H](Cc3c[nH]c4ccccc34)NC(=O)[C@H]([C@@H](C)O)NC2=O)C(=O)N[C@@H](Cc2ccc(OCCN)cc2)C(=O)N[C@@H](Cc2ccc3ccccc3c2)C(=O)N[C@@](C)(CC(C)C)C(=O)N1 [Compound 38, K(1c)(6c)^†TWQ[hGlu](6c)[Y(2-aminoethoxy)][2-Nal][2-Me-Leu]E(1c)[Dab][3-(3-Pyridyl)-Ala]-[NHMe]]
100% | 8.5 nM | – | CC[C@H](C)[C@@H]1NC(=O)[C@@H]2CCCCNC(=O)CC[C@@H](C(=O)N[C@@H](CCN)C(=O)N[C@H](Cc3cccnc3)C(N)=O)NC(=O)[C@](C)(C(C)C)NC(=O)[C@H](Cc3ccc4ccccc4c3)NC(=O)[C@H](Cc3ccc(C)cc3)NC(=O)[C@H](CCC(=O)N2)NC(=O)[C@H](CCC(N)=O)NC(=O)[C@H](Cc2c[nH]c3ccccc23)NC(=O)[C@H](C(C)C)NC1=O [Compound 18, K(1c)(6c)^†IVWQE(6c)[F(4-Me)][2-Nal][2-Me-Val]E(1c)[Dab][{d}3-(3-Pyridyl)-Ala]-[NH2]]
– | 1.4 nM | 99% | CNC(=O)[C@H](Cc1cccnc1)NC(=O)[C@H](CCN)NC(=O)[C@@H]1CCC(=O)NCC[C@@H]2NC(=O)CC[C@H](NC(=O)[C@H](CCC(N)=O)NC(=O)[C@H](Cc3c[nH]c4ccccc34)NC(=O)[C@H]([C@@H](C)O)NC2=O)C(=O)N[C@@H](Cc2ccc(OCCN)cc2)C(=O)N[C@@H](Cc2ccc3ccccc3c2)C(=O)N[C@@](C)(CC(C)C)C(=O)N1 [Compound 37, [Dab](1c)(6c)^†TWQE(6c)[Y(2-aminoethoxy)][2-Nal][2-Me-Leu]E(1c)[Dab][3-(3-Pyridyl)-Ala]-[NHMe]]
– | 0.11 nM | 98% | CC[C@H](C)[C@@H]1NC(=O)[C@@H]2CCCCNC(=O)CC[C@@H](C(=O)N[C@@H](CCN)C(=O)N[C@@H](Cc3cccnc3)C(=O)NC)NC(=O)[C@](C)(CC(C)C)NC(=O)[C@H](Cc3ccc4ccccc4c3)NC(=O)[C@H](Cc3ccc(OC)cc3)NC(=O)[C@H](CCC(=O)N2)NC(=O)[C@H](CCC(N)=O)NC(=O)[C@H](Cc2c[nH]c3ccccc23)NC(=O)[C@H](C(C)C)NC1=O [Compound 35, K(1c)(6c)^†IVWQE(6c)[Y(Me)][2-Nal][2-Me-Leu]E(1c)[Dab][3-(3-Pyridyl)-Ala]-[NHMe]]
– | 16 nM | 101% | CNC(=O)[C@H](Cc1cccnc1)NC(=O)[C@H](CCN)NC(=O)[C@@H]1CCCCNC(=O)[C@H]2CCC(=O)N[C@@H](Cc3c[nH]c4ccccc34)C(=O)N[C@@H](CCC(N)=O)C(=O)N[C@@H](CCC(=O)N2)C(=O)N[C@@H](Cc2ccc(OCCN)cc2)C(=O)N[C@@H](Cc2ccc3ccccc3c2)C(=O)N[C@@](C)(CC(C)C)C(=O)N1 [Compound 108, [{d}iso-Glu](1c)^‡(6c)^†WQE(6c)[Y(2-aminoethoxy)][2-Nal][2-Me-Leu]K(1c)[Dab][3-(3-Pyridyl)-Ala]-[NHMe]] (WQE[AEF][2Nal][αMeL]K[Dab][3Pal]-NHMe; linker N-3-7 via X8)
